We go through 15 compounds from patent publication US6608086B2, “Dihydropyridines and new uses thereof” (Synaptic Pharmaceutical Corporation, priority 1993, dated 2003).

The target in test [1] is T1, α1A Human Adrenergic Receptor (Homo sapiens, UniProt P25100).
T1 construct: The entire coding region of α1A (1719 bp); expressed in transfected cells
T1 sequence (P25100 1-572): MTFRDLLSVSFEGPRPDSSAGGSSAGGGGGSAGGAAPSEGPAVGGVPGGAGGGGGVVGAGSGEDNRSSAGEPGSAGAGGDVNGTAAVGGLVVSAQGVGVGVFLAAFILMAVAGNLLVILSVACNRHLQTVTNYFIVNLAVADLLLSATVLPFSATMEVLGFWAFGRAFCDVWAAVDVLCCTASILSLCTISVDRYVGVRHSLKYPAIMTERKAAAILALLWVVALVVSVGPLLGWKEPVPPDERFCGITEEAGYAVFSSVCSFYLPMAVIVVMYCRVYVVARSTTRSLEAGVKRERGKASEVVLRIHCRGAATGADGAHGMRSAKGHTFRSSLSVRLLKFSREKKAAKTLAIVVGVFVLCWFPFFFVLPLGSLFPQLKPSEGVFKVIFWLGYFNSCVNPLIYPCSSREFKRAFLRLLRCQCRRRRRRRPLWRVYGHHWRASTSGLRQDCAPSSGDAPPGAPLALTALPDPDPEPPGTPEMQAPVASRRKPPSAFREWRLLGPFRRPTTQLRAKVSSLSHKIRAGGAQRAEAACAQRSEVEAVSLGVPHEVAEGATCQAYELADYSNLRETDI
Nature of the test: Radioligand binding, [3H]prazosin, cloned human α1A adrenergic receptor. The following applies: [3H]prazosin, cloned human receptor in LM(tk-) cell membranes, SEM and n in lines below; for Ki: read-out: pKi alpha-1 1a (converted). Summed up: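 Membranes from LM(tk−) cells transfected with cloned human α1A receptor, prepared in 50 mM Tris-HCl, 1 mM MgCl2, 0.1% ascorbic acid pH 7.5, were incubated with 0.5 nM [3H]prazosin at 37° C for 20 min. Nonspecific binding was defined with 10 μM phentolamine; bound ligand was separated by GF/B filtration.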

The target in test [2] is T2, α1B Human Adrenergic Receptor (Homo sapiens, UniProt P35368).
T2 construct: The entire coding region of α1B (1563 bp); expressed in transfected cells
T2 sequence (P35368 1-520): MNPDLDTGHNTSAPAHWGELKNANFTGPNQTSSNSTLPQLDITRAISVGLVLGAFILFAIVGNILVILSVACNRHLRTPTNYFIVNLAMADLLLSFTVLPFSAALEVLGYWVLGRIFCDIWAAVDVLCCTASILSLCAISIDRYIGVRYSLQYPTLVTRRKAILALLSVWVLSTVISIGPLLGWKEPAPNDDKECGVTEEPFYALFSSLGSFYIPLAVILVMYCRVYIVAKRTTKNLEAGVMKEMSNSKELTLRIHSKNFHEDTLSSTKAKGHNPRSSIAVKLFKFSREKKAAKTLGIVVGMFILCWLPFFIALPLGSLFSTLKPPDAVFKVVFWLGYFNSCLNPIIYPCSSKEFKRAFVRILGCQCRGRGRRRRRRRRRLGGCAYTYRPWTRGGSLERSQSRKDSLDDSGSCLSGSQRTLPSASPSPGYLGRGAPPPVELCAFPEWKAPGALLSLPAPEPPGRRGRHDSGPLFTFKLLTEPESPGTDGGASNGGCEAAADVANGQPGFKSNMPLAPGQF
The experiment in a line: Radioligand binding, [3H]prazosin, cloned human α1B adrenergic receptor. The following applies: cloned human receptor in LM(tk-) cell membranes, SEM and n in lines below; for Ki: read-out: pKi alpha-1 1b (converted). In short, it runs like this: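 Membranes from stably transfected LM(tk−) cells, resuspended in 50 mM Tris-HCl, 1 mM MgCl2, 0.1% ascorbic acid, pH 7.5, were incubated with 0.5 nM [3H]prazosin for 20 min at 37° C. Nonspecific binding defined with 10 μM phentolamine; bound ligand separated by GF/B filtration.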

In another test the target is T3, α2A receptor (Homo sapiens, UniProt P08913).
T3 construct: host or cells: LM(tk-) cells, line L-α2A
T3 sequence (P08913 1-465): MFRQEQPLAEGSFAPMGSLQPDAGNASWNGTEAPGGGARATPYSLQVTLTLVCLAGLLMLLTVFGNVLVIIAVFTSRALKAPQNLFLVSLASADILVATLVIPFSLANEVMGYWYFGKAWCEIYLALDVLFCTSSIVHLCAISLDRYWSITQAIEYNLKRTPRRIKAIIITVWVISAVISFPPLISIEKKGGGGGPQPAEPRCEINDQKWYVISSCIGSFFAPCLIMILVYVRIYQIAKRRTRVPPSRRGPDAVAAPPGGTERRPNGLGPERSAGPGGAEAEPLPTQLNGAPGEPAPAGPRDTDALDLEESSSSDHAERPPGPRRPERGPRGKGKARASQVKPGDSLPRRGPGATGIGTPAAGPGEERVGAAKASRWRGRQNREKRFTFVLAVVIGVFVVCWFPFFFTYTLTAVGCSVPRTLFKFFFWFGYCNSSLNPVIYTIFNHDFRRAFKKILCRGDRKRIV
The experiment in a line: Competition binding, [3H]rauwolscine, human α2A receptor. The following applies: [3H]rauwolscine, LM(tk-) cell line L-α2A, SEM and n in lines below; for Ki: read-out: pKi alpha-2 2a (converted). Summed up: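 LM(tk−) lysates, stable α2A/α2B/α2C transfectants; 25 mM glycylglycine pH 7.6 (RT). [3H]rauwolscine 0.5 nM, equilibrium competition; NSB 10 μM phentolamine. GF/B filtration, cell harvester.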

Where a name gives a salt, the structure may show the parent alone.

`COC(=O)C1=C(C)NC(C)=C(C(=O)OCCCN2CCCCC2)C1c1ccc([N+](=O)[O-])cc1` (stereo not drawn) [Example 50, 1,4-Dihydro-5-methoxycarbonyl-2,6-dimethyl-4-(4-nitrophenyl)-3-[3-(piperidin-1-yl)propoxy]carbonylpyridine hydrochloride etherate]: the Ki in test [1] was 1950 nM; in test [2], 3020 nM; on α2A receptor, 1510 nM.
For `COC(=O)C1=C(C)NC(C)=C(C(=O)NCCCN2CCCCC2)C1c1ccc([N+](=O)[O-])cc1` (stereo not drawn) [Example 51, 1,4-Dihydro-3-methoxycarbonyl-2,6-dimethyl-4-(4-nitrophenyl)-5-{N-[3-(piperidin-1-yl)propyl]}carboxamidopyridine hydrochloride etherate] the same measures were 9770 nM, 5010 nM and 447 nM.
In the case of `COC(=O)C1=C(C)NC(C)=C(C(=O)NCCCCN2CCC(c3ccccc3)(c3ccccc3)CC2)C1c1ccc([N+](=O)[O-])cc1.Cl.O` (stereo not drawn) [Example 53, 1,4-Dihydro-3-methoxycarbonyl-2,6-dimethyl-4-(4-nitrophenyl)-5-{N-[4-(4,4-diphenylpiperidin-1-yl)butyl]}carboxamidopyridine hydrochloride hydrate], the “pKi alpha-1 1a” value in test [1] amounted to 6.49. Further, in test [2], the “pKi alpha-1 1b” value turned out to be 6.87. Further, the “pKi alpha-2 2a” value at α2A receptor was 6.18.
As for `COC(=O)C1=C(C)NC(C)=C(C(=O)NCCCN2CCc3cc(OC)c(OC)cc3C2)C1c1ccc([N+](=O)[O-])cc1` (stereo not drawn) [Example 57, 1,4-Dihydro-3-methoxycarbonyl-5-{N-[3-(1,2,3,4-tetrahydro-6,7-dimethoxyisoquinolin-2-yl)propyl]}carboxamido-2,6-dimethyl-4-(4-nitrophenyl)pyridine hydrochloride hydrate], the Ki in test [1] is 1620 nM; in test [2] it was 1230 nM; on α2A receptor it was 195 nM.
For `COc1cc2c(cc1OC)CN(CCCNC(=O)C1=C(C)NC(C)=C(C(N)=O)C1c1ccc([N+](=O)[O-])cc1)CC2` (stereo not drawn) [Example 58, 5-Carboxamido-1,4-dihydro-3-{N-[3-(1,2,3,4-tetrahydro-6,7-dimethoxyisoquinolin-2-yl)propyl]}carboxamido-2,6-dimethyl-4-(4-nitrophenyl)pyridine hydrochloride] the same measures were 3020 nM, 2290 nM and 8.32 nM.
On to `CC1=C(C(N)=O)C(c2ccc([N+](=O)[O-])cc2)C(C(=O)NCCCN2CCC(c3ccccc3)CC2)=C(C)N1` (stereo not drawn) [Example 60, 5-Carboxamido-1,4-dihydro-2,6-dimethyl-4-(4-nitrophenyl)-3-{N-[3-(4-phenylpiperidin-1-yl)propyl]}carboxamidopyridine], for which the Ki in test [1] was 200 nM; in test [2], 77.6 nM; on α2A receptor it was 5.5 nM.
For `CC1=C(C(N)=O)C(c2cccc([N+](=O)[O-])c2)C(C(=O)NCCCN2CCC(c3ccccc3)CC2)=C(C)N1` (stereo not drawn) [Example 62] the same measures were 339 nM, 316 nM and 24.5 nM.
For `CC1=C(C(=O)NCCCN2CCC(c3ccccc3)CC2)C(c2ccc([N+](=O)[O-])cc2)c2c([nH]c(=O)[nH]c2=O)N1` (stereo not drawn) [Example 63, 1,4-Dihydro-6-methyl-4-(4-nitrophenyl)-5-{N-[3-(4-phenylpiperidin-1-yl)propyl]}carboxamido-[2,3, d]uracilylpyridine] the same measures were 44.7 nM, 18.6 nM and 955 nM.
On to `COC(=O)C1=C(C)NC(c2ccoc2)=C(C(=O)NCCCN2CCC(c3ccccc3)CC2)C1c1ccc([N+](=O)[O-])cc1` (stereo not drawn) [Example 65, 2-(Furan-3-yl)-1,4-dihydro-5-methoxycarbonyl-6-methyl-4-(4-nitrophenyl)-5-{N-[3-(4-phenylpiperidin-1-yl)propyl]}carboxamidopyridine hydrochloride hydrate], for which the values for the Ki (in test [1]; in test [2]; at α2A receptor) were 129 nM, 57.5 nM and 200 nM, respectively.
`CC1=C(C(N)=O)C(c2ccc([N+](=O)[O-])cc2)C(C(=O)NC2CCN(Cc3ccccc3)CC2)=C(c2ccoc2)N1.Cl.O` (stereo not drawn) [Example 66]: in test [1], the “pKi alpha-1 1a” value is 5.45. Besides, in test [2], the “pKi alpha-1 1b” value was 5.36. Also, on α2A receptor, the “pKi alpha-2 2a” value was found to be 5.53.
On to `COc1cc2c(c(OC)c1)CCN(CCCNC(=O)C1=C(c3ccoc3)NC(C)=C(C(N)=O)C1c1ccc([N+](=O)[O-])cc1)C2.Cl.O` (stereo not drawn) [Example 67], for which the “pKi alpha-1 1a” value in test [1] is given as 5.96. Also, in test [2], the “pKi alpha-1 1b” value is 6.18. At α2A receptor, the “pKi alpha-2 2a” value is on record as 6.45.
Take `CCC1=C(C(=O)NCCCN2CCC(c3ccccc3)CC2)C(c2ccc([N+](=O)[O-])cc2)C(C(=O)OC)=C(C)N1` (stereo not drawn) [Example 74, 2-Ethyl-1,4-dihydro-5-methoxycarbonyl-6-methyl-4-(4-nitro)phenyl-3-(N-(3-(4-phenylpiperidin-1-yl)propyl)) carboxamidopyridine hydrochloride hydrate]: the Ki was 58.9 nM in test [1], 19.1 nM in test [2] and 58.9 nM at α2A receptor.
Consider `CCC1=C(C(=O)NC2CCN(Cc3ccccc3)CC2)C(c2ccc([N+](=O)[O-])cc2)C(C(=O)OC)=C(C)N1` (stereo not drawn) [Example 75, 2-Ethyl-1,4-dihydro-5-methoxycarbonyl-6-methyl-4-(4-nitro)phenyl-3-(N-(N-phenylmethyl)piperidin-4-yl)carboxamidopyridine hydrochloride], for which the Ki is 4370 nM in test [1], 3890 nM in test [2] and 2880 nM on α2A receptor.
As for `CCC1=C(C(=O)NCCCN2CCc3cc(OC)c(OC)cc3C2)C(c2ccc([N+](=O)[O-])cc2)C(C(N)=O)=C(C)N1.Cl.O` (stereo not drawn) [Example 76, 5-Carboxamido-2-ethyl-1,4-dihydro-3-(N-(3-(1,2,3,4-tetrahydro-6,7-dimethoxyisoquinolin-2-yl)propyl)) carboxamido-6-methyl-4-(4-nitro)phenylpyridine hydrochloride hydrate], the “pKi alpha-1 1a” value in test [1] came to 5.89. Also, the “pKi alpha-1 1b” value in test [2] is recorded as 5.88. In addition, at α2A receptor, the “pKi alpha-2 2a” value was found to be 6.96.
Take `CCC1=C(C(=O)NCCCCN2CCC(c3ccccc3)CC2)C(c2ccc([N+](=O)[O-])cc2)C(C(N)=O)=C(C)N1.Cl.O` (stereo not drawn) [Example 77, 5-Carboxamido-2-ethyl-1,4-dihydro-6-methyl-4-(4-nitro)phenyl-3-(N-(4-(4-phenylpiperidin-1-yl)butyl))carboxamidopyridine hydrochloride hydrate]: the “pKi alpha-1 1a” value in test [1] is recorded as 6.83. Besides, the “pKi alpha-1 1b” value in test [2] is recorded as 7.16. Further, the “pKi alpha-2 2a” value on α2A receptor is recorded as 6.95.
